Publication PMC6017703, “Synthesis and Biological Evaluation of New Thiosemicarbazone Derivative Schiff Bases as Monoamine Oxidase Inhibitory Agents” (Molecules : A Journal of Synthetic Chemistry and Natural …, 2017)

Target: T1, monoamine oxidase A (MAO-A) (Homo sapiens, UniProt P21397)
T1 construct: gene MAOA; recombinant MAO-A
T1 sequence (P21397 1-527): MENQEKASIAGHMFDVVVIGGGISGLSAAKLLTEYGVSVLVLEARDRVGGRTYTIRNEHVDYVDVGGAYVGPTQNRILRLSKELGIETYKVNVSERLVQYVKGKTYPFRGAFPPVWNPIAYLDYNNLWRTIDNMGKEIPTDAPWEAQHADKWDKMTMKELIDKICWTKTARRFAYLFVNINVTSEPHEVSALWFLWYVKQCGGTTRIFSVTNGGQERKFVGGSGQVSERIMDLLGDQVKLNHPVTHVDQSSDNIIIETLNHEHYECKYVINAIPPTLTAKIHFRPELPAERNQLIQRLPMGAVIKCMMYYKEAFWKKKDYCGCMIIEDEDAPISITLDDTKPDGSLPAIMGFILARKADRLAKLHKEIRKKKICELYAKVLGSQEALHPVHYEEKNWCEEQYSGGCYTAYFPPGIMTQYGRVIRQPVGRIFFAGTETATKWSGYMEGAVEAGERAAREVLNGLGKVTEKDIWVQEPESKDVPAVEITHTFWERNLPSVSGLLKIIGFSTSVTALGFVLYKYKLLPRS
Test: fluorometric Ampliflu Red/HRP assay with tyramine; Lineweaver-Burk kinetics (IC50 also […])
Type: biochemical

Ki: 142 nM
SMILES: S=C(NN=Cc1ccc(Sc2ccc(Cl)cc2)cc1)NC1CCCCC1 [B24, N-Cyclohexyl-2-[4-[(4-chlorophenyl)thio]benzylidene]hydrazine-1-carbothioamide]
